Columns and labels:
normal cells (HPNE, HAF) = assay: MTS proliferation assay, normal cells; assay type: cell-based; conditions: 48 h
Description: Fig. 4 N4 suppresses pancreatic cancer cell proliferation and migration and induces apoptosis. A Pancreatic cancer cells (CAPAN-2, PANC-1, MIAPACA-2, BXPC-3, HPAC, and CFPAC-1) and normal cells (HPNE, HAF) were incubated with the indicated concentration of N4 for 48 h. MTS assays were performed to detect the N4-mediated inhibition of cell proliferation. Data are shown as mean ± SD, *P < 0.05, **P < 0.01, ***P < 0.001, ****P < 0.0001, n.s. not significant by one-way ANOVA followed by multiple comparisons. B, C CAPAN-2, PANC-1, and MIAPACA-2 cells were treated with N4 (B) or C188-9 (C) for 7 days. The cells fixed and stained, and colony numbers were calculated. Experiments were carried out in triplicate with identical results obtained. […] Apoptotic cells were analyzed as described in Materials and Methods. […] In F, after 48 h transfection, transfected cells were seeded in 96-well plates, and cells were enumerated at day 1, day 2, and day 4, In G, different cells transfected with different siRNA were treated with the indicated concentrations of N4, and cell viability measured after a 48 h treatment. Data are expressed as mean ± SD, *P < 0.05, ***P < 0.001, n.s. not significant by one-way ANOVA followed by multiple comparisons. […] Data are expressed as mean ± SD, *P < 0.05, ***P < 0.001, n.s. not significant; Student’s t tests were performed. […]

STAT3 = assay: STAT3-response dual luciferase reporter assay; assay type: cell-based
Description: Fig. 1 N4 inhibits STAT3 dimerization and transcription in vitro. A Purified STAT3 protein was incubated with labeled phosphopeptide, 5-carboxyfluorescein-GpYLPQTV-NH2 for 1 h at 37 °C. FP signals were measured, and the data were analyzed using Graph Pad 7.0 software. B Chemical structure of N4. C Different concentrations of N4 were pre-incubated with recombined STAT3 protein for 1 h, then 10 nM of labeled peptide was added for 1 h. The IC50 was calculated using Graph Pad 7.0. D, E, F STAT3 specific luciferase reporter plasmid was transiently transfected into 293T cells. After 24 h transfection, IL-6 (20 ng/mL), OSM (10 ng/mL), and V-SRC expression plasmid (200 ng) was used to activate STAT3 luciferase activity, N4 was added at the indicated concentrations. Renilla luciferase activities were used as an internal reference (n = 2 per group). The values are expressed as mean ± SD and the bars indicate statistically significant differences (t test), *P < 0.05; **P < 0.01; ***P < 0.001.
Dual luciferase assay was performed as previously described. […] Renilla and firefly luciferase activities were determined by luminometry using the Dual Luciferase Reporter Assay System (Promega). The ratio was calculated.
Supplementary Figure 5. […] The values are expressed as mean ± SD and the bars indicate statistically significant differences (t-test), *P < 0.05; **P < 0.01; ***P < 0.001. […]

In the case of `COc1cc2c(cc1C(=O)Nc1cccc3cccnc13)CCC1C(C)(C)C(=O)C(C#N)=C[C@]21C` (stereo partly drawn) [N4], the “effect on two normal cell types” value (normal cells (HPNE, HAF)) is reported as “no significant effect”, the “STAT3-dependent luciferase reporter activity” value (STAT3; 293T cells, IL-6, OSM or V-SRC induced) is reported as “suppressed” and the STAT3-response luciferase activities (STAT3; PANC-1 and BXPC-3 cells, with or without IL-6 stimulation) is reported as “efficiently inhibited”.
